From US20170152258A9, “Substituted Pyridopyrazines as Syk Inhibitors” (HUTCHISON MEDIPHARMA LIMITED, priority 2012, published 2017)

Tests used:
[1] = target: Syk kinase (Homo sapiens, UniProt P43405); experiment: SYK Enzymatic Assay (Z-LYTE Tyr 2 peptide); format: biochemical; conditions: 8 concentrations 1 μM down to 0.0003 μM
Method in brief: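 Z-LYTE format using Tyr 2 peptide. After the 1 h room-temperature kinase reaction, development reagent was added for 1 h, then stop reagent. Fluorescence was read at 445 and 520 nm. Compounds were tested at 8 concentrations, 1 μM down to 0.0003 μM (1:3 dilutions).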

[2] = test system: RBL-2H3 cells; experiment: IgE-induced Beta-hexosaminidase secretion in RBL-2H3 cells; format: cell-based; conditions: Rattus norvegicus, RBL-2H3, IgE-induced Beta-hexosaminidase secretion, DNP-BSA stimulation
Method in brief: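 RBL-2H3 cells sensitized overnight with 0.5 ug/ml SPE-7 IgE, washed, preincubated with compound 20 min at 37° C, then stimulated with DNP-BSA (150 ng/mL stock) for 45 min. Released β-hexosaminidase measured on supernatant with 1 mM 4-nitrophenyl N-acetyl-β-D-glucosaminide, pH 4.5, 1.5 hr at 37° C; absorbance 405 nm after carbonate quench.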

SMILES	IC50 [1] [µM]	IC50 [2] [µM]
CN(C)c1ccc(-c2cc3nccnc3c(OC[C@@H]3CN(S(=O)(=O)CCN4CC[C@@H](O)C4)CCO3)n2)cc1 [Compound 102]	0.038	0.108
CN(C)c1ccc(-c2cc3nccnc3c(OC[C@@H]3CN(C(=O)c4cccnc4)CCO3)n2)cc1 [Compound 78]	0.061	0.074
CC(=O)N1CCO[C@H](COc2nc(-c3ccc(N4CCN(CCO)CC4)cc3)cc3nccnc23)C1 [Compound 49]	0.087	0.315
CS(=O)(=O)N1CCO[C@H](COc2nc(-c3ccc4ncccc4c3)cc3nccnc23)C1 [Compound 111]	0.117	0.119
CN(CC#N)CCS(=O)(=O)N1CCO[C@H](COc2nc(-c3ccc(N(C)C)cc3)cc3nccnc23)C1 [Compound 104]	0.038	0.127
CC1CN(c2ccc(-c3cc4nccnc4c(OC[C@@H]4CN(S(C)(=O)=O)CCO4)n3)cc2)CCO1 (some centres unmarked) [Compound 18]	0.023	0.062
CNC(=O)N1CCO[C@H](COc2nc(-c3ccc(OC)c(OC)c3)cc3nccnc23)C1 [Compound 143]	0.08	0.244
COc1ccc(-c2cc3nccnc3c(OC[C@@H]3CN(S(C)(=O)=O)CCO3)n2)cc1OC [Compound 43]	0.013	0.037
Cn1ccc2cc(-c3cc4nccnc4c(OC[C@@H]4CN(S(C)(=O)=O)CCO4)n3)ccc21 [Compound 39]	0.033	0.076
CCS(=O)(=O)N1CCO[C@H](COc2nc(-c3ccc(N(C)C)cc3)cc3nccnc23)C1 [Compound 88]	0.032	0.098
CS(=O)(=O)N1CCO[C@H](COc2nc(-c3ccc(N4CCN(CCO)CC4)cc3)cc3nccnc23)C1 [Compound 27]	0.021	0.222
CC(=O)N1CCN(c2ccc(-c3cc4nccnc4c(OC[C@@H]4CN(S(C)(=O)=O)CCO4)n3)cc2)CC1 [Compound 122]	0.015	0.073
COc1ccc(-c2cc3nccnc3c(OC[C@@H]3CN(S(C)(=O)=O)CCO3)n2)cc1 [Compound 38]	0.083	0.278
CN(C)c1ccc(-c2cc3nccnc3c(OC[C@@H]3CN(S(C)(=O)=O)CCO3)n2)cc1F [Compound 53]	0.032	0.037
CS(=O)(=O)N1CCO[C@H](COc2nc(-c3ccc(N4CCC(F)(F)CC4)cc3)cc3nccnc23)C1 [Compound 20]	0.041	0.066
CC(=O)N1CCO[C@H](COc2nc(-c3ccc(N(C)C)c(Cl)c3)cc3nccnc23)C1 [Compound 140]	0.052	0.031
CS(=O)(=O)N1CCO[C@H](COc2nc(-c3ccc(C4CCOCC4)cc3)cc3nccnc23)C1 [Compound 11]	0.052	0.048
CC(=O)N1CCO[C@H](COc2nc(-c3ccc(N(C)C)cc3)cc3nccnc23)C1 [Compound 67]	0.052	0.089
CN(C)c1ccc(-c2cc3nccnc3c(OC[C@@H]3CN(C(=O)C4CCCC4)CCO3)n2)cc1 [Compound 98]	0.055	0.23
CN(C)c1ccc(-c2cc3nccnc3c(OC[C@@H]3CN(C(=O)C4CCOCC4)CCO3)n2)cc1 [Compound 73]	0.204	0.142
NS(=O)(=O)N1CCO[C@H](COc2nc(-c3ccc(N4CCOCC4)cc3)cc3nccnc23)C1 [Compound 62]	0.024	0.097
CN(C)c1ccc(-c2cc3nccnc3c(OC[C@@H]3CN(C(=O)c4cnn(C)c4)CCO3)n2)cc1 [Compound 87]	0.06	0.2
CN(C)c1ccc(-c2cc3nccnc3c(OC[C@@H]3CN(S(=O)(=O)C4CC4)CCO3)n2)cc1 [Compound 90]	0.046	0.061
CNC(=O)N1CCO[C@H](COc2nc(-c3ccc(N(C)C)cc3)cc3nccnc23)C1 [Compound 137]	0.028	0.045
COCCS(=O)(=O)N1CCO[C@H](COc2nc(-c3ccc(N4CCOCC4)cc3)cc3nccnc23)C1 [Compound 66]	0.058	0.23
CS(=O)(=O)N1CCO[C@H](COc2nc(-c3ccc(N4CCOCC4)c(F)c3)cc3nccnc23)C1 [Compound 7]	0.071	0.122
O=C(C(F)F)N1CCO[C@H](COc2nc(-c3ccc(N4CCOCC4)c(F)c3)cc3nccnc23)C1 [Compound 15]	0.096	0.102
COc1cc(-c2cc3nccnc3c(OC[C@@H]3CN(S(C)(=O)=O)CCO3)n2)ccc1OCCN(C)C [Compound 126]	0.041	0.366

Now from value to compound:

IC50 [1] [µM]	IC50 [2] [µM]	SMILES
0.179	0.185	CCC(O)(CC)c1ccc(-c2cc3nccnc3c(OC[C@@H]3CN(C(C)=O)CCO3)n2)cc1 [Compound 270]
0.045	0.068	c1cnc2c(O[C@@H]3CCOC3)nc(-c3ccc(C4CCOCC4)cc3)cc2n1 [Compound 217]
0.067	0.128	C[C@@H](O)C(=O)N1CCO[C@H](COc2nc(-c3ccc(N(C)C)cc3)cc3nccnc23)C1 [Compound 196]
0.152	0.429	CC(F)(F)c1ccc(-c2cc3nccnc3c(OC[C@@H]3CN(S(C)(=O)=O)CCO3)n2)cc1 [Compound 230]
0.081	0.187	CS(=O)(=O)N1CCO[C@H](COc2nc(-c3ccc(CN4CCOCC4)cc3)cc3nccnc23)C1 [Compound 258]
0.033	0.026	CS(=O)(=O)N1CCN(c2ccc(-c3cc4nccnc4c(O[C@@H]4CCOC4)n3)cc2)CC1 [Compound 153]
0.047	0.124	NC(=O)N1CCO[C@H](COc2nc(-c3ccc(C4CCOCC4)cc3)cc3nccnc23)C1 [Compound 241, (S)-2-(((7-(4-(tetrahydro-2H-pyran-4-yl)phenyl)pyrido[3,4-b]pyrazin-5-yl)oxy)methyl)morpholine-4-carboxamide]
0.04	0.086	CCC(=O)N1CCO[C@H](COc2nc(-c3ccc(N(C)C)cc3)cc3nccnc23)C1 [Compound 198]
0.026	0.027	CN(C)c1ccc(-c2cc3nccnc3c(OC[C@@H]3CN(S(C)(=O)=O)CCO3)n2)cn1 [Compound 218]
0.067	0.056	CN(C)c1ccc(-c2cc3nccnc3c(OC[C@H]3CNC(=O)C3)n2)cc1 [Compound 232]
0.091	0.088	COC(C)(C)c1ccc(-c2cc3nccnc3c(OC[C@@H]3CN(C(C)=O)CCO3)n2)cc1 [Compound 269]
0.095	0.044	CC(Oc1nc(-c2ccc(N(C)C)cc2)cc2nccnc12)C1CN(S(N)(=O)=O)CCO1 (centres unmarked) [Compound 246]
0.066	0.082	CNC(=O)N1CCO[C@H](COc2nc(-c3ccc(N(C)C)c(C)c3)cc3nccnc23)C1 [Compound 164]
0.088	0.166	CC(=O)N1CCO[C@H](COc2nc(-c3ccc(C(C)(C)O)cc3)cc3nccnc23)C1 [Compound 265]
0.477	1.26	CC(=O)N1CCO[C@H](COc2nc(-c3ccc(C(C)(C)CN)cc3)cc3nccnc23)C1 [Compound 267]
0.095	0.137	CC(=O)N1CCO[C@H](COc2nc(-c3ccc4c(c3)OCCN4C)cc3nccnc23)C1 [Compound 148]
0.028	0.191	CC1(C)OCc2cc(-c3cc4nccnc4c(OC[C@@H]4CN(C(N)=O)CCO4)n3)ccc21 [Compound 298]
0.038	0.032	CC(=O)N1CCC(c2ccc(-c3cc4nccnc4c(O[C@@H]4CCOC4)n3)cc2)CC1 [Compound 156]
0.044	0.038	CNS(=O)(=O)N1CCO[C@H](COc2nc(-c3ccc(N(C)C)c(C)c3)cc3nccnc23)C1 [Compound 221]
0.026	0.092	CS(=O)(=O)N1CCO[C@H](COc2nc(-c3ccc(C4(C#N)CCC4)cc3)cc3nccnc23)C1 [Compound 282]
0.097	0.194	CC(C)(C)C(O)c1ccc(-c2cc3nccnc3c(OC[C@@H]3CN(S(C)(=O)=O)CCO3)n2)cc1 (some centres unmarked) [Compound 284]
0.027	0.097	CC(C)(C)c1ccc(-c2cc3nccnc3c(OC[C@@H]3CN(C(N)=O)CCO3)n2)cc1 [Compound 255]
0.014	0.047	CC1(C)OCc2cc(-c3cc4nccnc4c(OC[C@@H]4CN(S(C)(=O)=O)CCO4)n3)ccc21 [Compound 299]
0.036	0.092	CC(C)(C)c1ccc(-c2cc3nccnc3c(OC[C@@H]3CN(S(C)(=O)=O)CCO3)n2)cc1 [Compound 256]
